Values quoted from earlier work, collected in patent publication US7547776B1, “Process for the production of fludarabine-phosphate lithium, sodium, potassium, calcium and magnesium salts and purification process for the production of fludarabine-phosphate and fludarabine-phosphate with a purity of at least 99.5%” (Bayer Schering Pharma Aktiengesellschaft, priority 1997, dated 2009).

Details: in water at approximately 75° C. (recrystallization)

- thermal stability in water: thermally unstable
Compound: Nc1nc(F)nc2c1ncn2[C@@H]1O[C@H](COP(=O)(O)O)[C@@H](O)[C@@H]1O [fludarabine-phosphate, 9-β-D-arabinofuranosyl-2-fluoroadenine-5′-O-dihydrogenphosphate]
